ChEMBL document CHEMBL1153701, “Synthesis and evaluation of antiallodynic and anticonvulsant activity of novel amide and urea derivatives of valproic acid analogues” (2009)
The source made the active and inactive calls. No cut-off for these calls is given here.

How the values were obtained:
[1] = system: Rattus norvegicus; assay: Antiallodynic activity in ip dosed rat assessed as protection against spinal nerve ligation-induced neuropathic pain; assay type: functional
[2] = system: Mus musculus; assay: Antiepileptic activity in ip dosed CF1 mouse assessed as inhibition of maximal electroshock-induced seizures; assay type: functional
[3] = species: Rattus norvegicus; assay: Ratio of ED50 for antiallodynic activity in rat assessed as protection against spinal nerve ligation-induced neuropathic pain to ED50 for antiepileptic activity in rat by maximal electroshock-induced seizures assay; assay type: functional
[4] = system: Mus musculus; assay: Antiepileptic activity in CF1 mouse assessed as inhibition of maximal electroshock-induced seizures at 30 mg/kg, ip after 0.5 hrs; assay type: functional, organism-based; design: dose 30 mg/kg
[5] = system: Mus musculus; assay: Antiepileptic activity in CF1 mouse assessed as inhibition of maximal electroshock-induced seizures at 300 mg/kg, ip after 0.5 hrs; assay type: functional, organism-based; design: dose 300 mg/kg
[6] = system: Mus musculus; assay: Antiepileptic activity in CF1 mouse assessed as inhibition of maximal electroshock-induced seizures at 30 mg/kg, ip after 4 hrs; assay type: functional, organism-based; design: dose 30 mg/kg
[7] = system: Mus musculus; assay: Antiepileptic activity in CF1 mouse assessed as inhibition of maximal electroshock-induced seizures at 300 mg/kg, ip after 4 hrs; assay type: functional, organism-based; design: dose 300 mg/kg
[8] = system: Mus musculus; assay: Antiepileptic activity in CF1 mouse assessed as inhibition of subcutaneous pentylenetetrazole-induced seizures at 30 mg/kg, ip after 0.5 hrs; assay type: functional, organism-based; design: dose 30 mg/kg
[9] = system: Mus musculus; assay: Antiepileptic activity in CF1 mouse assessed as inhibition of subcutaneous pentylenetetrazole-induced seizures at 100 mg/kg, ip after 0.5 hrs; assay type: functional, organism-based; design: dose 100 mg/kg
[10] = system: Mus musculus; assay: Antiepileptic activity in CF1 mouse assessed as inhibition of subcutaneous pentylenetetrazole-induced seizures at 300 mg/kg, ip after 0.5 hrs; assay type: functional, organism-based; design: dose 300 mg/kg
[11] = system: Mus musculus; assay: Antiepileptic activity in CF1 mouse assessed as inhibition of subcutaneous pentylenetetrazole-induced seizures at 30 mg/kg, ip after 4 hrs; assay type: functional, organism-based; design: dose 30 mg/kg
[12] = system: Mus musculus; assay: Antiepileptic activity in CF1 mouse assessed as inhibition of subcutaneous pentylenetetrazole-induced seizures at 100 mg/kg, ip after 4 hrs; assay type: functional, organism-based; design: dose 100 mg/kg
[13] = system: Mus musculus; assay: Antiepileptic activity in CF1 mouse assessed as inhibition of subcutaneous pentylenetetrazole-induced seizures at 300 mg/kg, ip after 4 hrs; assay type: functional, organism-based; design: dose 300 mg/kg
[14] = system: Mus musculus; assay: Neurotoxicity in CF1 mouse assessed as protection against motor impairment at 30 mg/kg, ip after 0.5 hrs by rotarod test; assay type: functional, organism-based; design: dose 30 mg/kg
[15] = system: Mus musculus; assay: Neurotoxicity in CF1 mouse assessed as protection against motor impairment at 30 mg/kg, ip after 4 hrs by rotarod test; assay type: functional, organism-based; design: dose 30 mg/kg
[16] = system: Mus musculus; assay: Neurotoxicity in CF1 mouse assessed as protection against motor impairment at 100 mg/kg, ip after 4 hrs by rotarod test; assay type: functional, organism-based; design: dose 100 mg/kg
[17] = system: Rattus norvegicus; assay: Anticonvulsant activity in albino Sprague-Dawley rat assessed as protection against pilocarpine-induced seizure at 65 mg/kg, ip; assay type: functional, organism-based; design: dose 65 mg/kg
[18] = system: Rattus norvegicus; assay: Anticonvulsant activity in albino Sprague-Dawley rat assessed as protection against pilocarpine-induced seizure at 130 mg/kg, ip treated after 30 mins of pilcarpine challenge; assay type: functional, organism-based; design: dose 130 mg/kg
[19] = system: Mus musculus; assay: Antiepileptic activity in CF1 mouse assessed as inhibition of maximal electroshock-induced seizures at 100 mg/kg, ip after 0.5 hrs; assay type: functional, organism-based; design: dose 100 mg/kg
[20] = system: Mus musculus; assay: Antiepileptic activity in CF1 mouse assessed as inhibition of maximal electroshock-induced seizures at 100 mg/kg, ip after 4 hrs; assay type: functional, organism-based; design: dose 100 mg/kg
[21] = system: Mus musculus; assay: Neurotoxicity in CF1 mouse assessed as protection against motor impairment at 100 mg/kg, ip after 0.5 hrs by rotarod test; assay type: functional, organism-based; design: dose 100 mg/kg
[22] = system: Mus musculus; assay: Neurotoxicity in CF1 mouse assessed as protection against motor impairment at 300 mg/kg, ip after 0.5 hrs by rotarod test; assay type: functional, organism-based; design: dose 300 mg/kg
[23] = system: Mus musculus; assay: Neurotoxicity in CF1 mouse assessed as protection against motor impairment at 300 mg/kg, ip after 4 hrs by rotarod test; assay type: functional, organism-based; design: dose 300 mg/kg
[24] = system: Rattus norvegicus; assay: Anticonvulsant activity in ip dosed albino Sprague-Dawley rat assessed as protection against pilocarpine-induced seizure; assay type: functional
[25] = system: Rattus norvegicus; assay: Antiallodynic activity in rat assessed as protection against spinal nerve ligation-induced neuropathic pain at 80 mg/kg, ip after 180 mins; assay type: functional, organism-based; design: dose 80 mg/kg
[26] = system: Rattus norvegicus; assay: Antiallodynic activity in rat assessed as protection against spinal nerve ligation-induced neuropathic pain at 80 mg/kg, ip after 240 mins; assay type: functional, organism-based; design: dose 80 mg/kg
[27] = system: Rattus norvegicus; assay: Antiallodynic activity in rat assessed as protection against spinal nerve ligation-induced neuropathic pain at 80 mg/kg, ip after 30 mins; assay type: functional, organism-based; design: dose 80 mg/kg
[28] = system: Rattus norvegicus; assay: Antiallodynic activity in rat assessed as protection against spinal nerve ligation-induced neuropathic pain at 80 mg/kg, ip after 60 mins; assay type: functional, organism-based; design: dose 80 mg/kg
[29] = system: Rattus norvegicus; assay: Antiallodynic activity in rat assessed as protection against spinal nerve ligation-induced neuropathic pain at 80 mg/kg, ip after 120 mins; assay type: functional, organism-based; design: dose 80 mg/kg

| Compound | ED50 [1] [mg/kg] | ED50 [2] | ratio [3] | Activity [4] | Activity [5] | Activity [6] | Activity [7] | Activity [8] | Activity [9] | Activity [10] | Activity [11] | Activity [12] | Activity [13] | Activity [14] | Activity [15] | Activity [16] | Activity [20] | Activity [21] | further results |
| --- | --- | --- | --- | --- | --- | --- | --- | --- | --- | --- | --- | --- | --- | --- | --- | --- | --- | --- | --- |
| CC(C)C(C(N)=O)C(C)C | 58 | 51 mg/kg | 0.88 |  |  |  |  |  |  |  |  |  |  |  |  |  |  |  |  |
| CCCC(C(N)=O)C(C)(C)C (stereo not drawn) |  |  |  | inactive | Active | inactive | Active | inactive | inactive | Active | inactive | inactive | inactive | inactive | inactive | inactive |  |  | Activity [17]: Active; Activity [18]: Active |
| CCC(C)C(C(N)=O)C(C)C (stereo not drawn) | 50 | inactive |  | inactive | Active | inactive | inactive | inactive | Active | Active | inactive | inactive | inactive | inactive | inactive | inactive | inactive | Active | Activity [19]: Active; Activity [22]: Active |
| CCCC(C(N)=O)C(C)CC (stereo not drawn) | 49 | inactive |  | inactive | Active | inactive | inactive | inactive | inactive | Active | inactive | inactive | inactive | inactive | inactive | inactive | inactive | inactive | Activity [23]: inactive; Activity [17]: Active; Activity [18]: Active; ED50 [24]: 84 mg/kg; ED97 [24]: 149 mg/kg |
| CCCC(C(N)=O)C(C)C (stereo not drawn) | 42 | 22 mg/kg | 0.52 |  |  |  |  |  |  |  |  |  |  |  |  |  |  |  |  |
| CCC(C)C(CC)C(N)=O (stereo not drawn) [VALNOCTAMIDE] | 52 | 29 mg/kg | 0.56 |  |  |  |  |  |  |  |  |  |  |  |  |  |  |  |  |
| CNC(=O)CC(C)(C)C |  |  |  | inactive | inactive | inactive | inactive | inactive | inactive | inactive | inactive | inactive | inactive | inactive | inactive | inactive | inactive | inactive | Activity [25]: inactive; Activity [26]: inactive; Activity [19]: inactive; Activity [22]: inactive; Activity [23]: inactive; Activity [27]: inactive; Activity [28]: inactive; Activity [29]: inactive |
